Test results: paper PMC7026480, “Discovery of Multitarget-Directed Ligands Against Influenza A Virus From Compound Yizhihao Through a Predictive System for Compound-Protein Interactions” (Frontiers in Cellular and Infection Microbiology, 2020)
Where two headings read alike, the source gives them in different places.

What was measured:
[1] = target: neuraminidase (NA) of A/FujianXinluo/SWL2457/2014 (amantadine-resistant H1N1); assay type: biochemical, influenza A virus; conditions: read-out: IC50, NA inhibition test, A/FujianXinluo/SWL2457/2014
[2] = target: neuraminidase (NA) of A/HebeiXinhua/SWL1106/2017 (oseltamivir- and amantadine-resistant H1N1); assay type: biochemical, influenza A virus; conditions: read-out: IC50, NA inhibition test, A/HebeiXinhua/SWL1106/2017
[3] = tested on: wild-type and resistant IAV strains; assay: microbe, parasite or virus in culture; assay type: cell-based, influenza A virus; conditions: for IC50: Influenza A virus, read-out: IC50, protective effects for cells infected with the resistant IAV strains (CPE)
[4] = tested on: A/HebeiXinhua/SWL1106/2017 (oseltamivir- and amantadine-resistant H1N1); assay: microbe, parasite or virus in culture; assay type: cell-based, influenza A virus
[5] = tested on: A/FujianXinluo/SWL2457/2014 (amantadine-resistant H1N1); assay: microbe, parasite or virus in culture; assay type: cell-based; conditions: Influenza A virus, H1N1, MDCK
[6] = Influenza A virus, H1N1, MDCK, read-out: IC50, CPE reduction, A/HebeiXinhua/SWL1106/2017, Drug administration after virus inoculation
[7] = Influenza A virus, H1N1, MDCK, read-out: IC50, CPE reduction, A/HebeiXinhua/SWL1106/2017, Pre-incubation of virus and drug
[8] = Influenza A virus, H1N1, MDCK, read-out: IC50, CPE reduction, A/HebeiXinhua/SWL1106/2017, Simultaneous action of virus and drug
[9] = Influenza A virus, H1N1, MDCK, read-out: IC50, CPE reduction, A/HebeiXinhua/SWL1106/2017, Virus inoculation after drug administration
[10] = read-out: IC50, dual-oseltamivir and amantadine-resistant H1N1 CPE assay, all modes except for drug administration after viral infection
[11] = read-out: IC50, CPE reduction, A/FujianXinluo/SWL2457/2014, Drug administration after virus inoculation
[12] = read-out: IC50, CPE reduction, A/FujianXinluo/SWL2457/2014, Pre-incubation of virus and drug
[13] = read-out: IC50, CPE reduction, A/FujianXinluo/SWL2457/2014, Simultaneous action of virus and drug
[14] = read-out: IC50, CPE reduction, A/FujianXinluo/SWL2457/2014, Virus inoculation after drug administration

Compound	IC50 [1]	IC50 [2]	IC50 [3]	IC50 [4, 6]	IC50 [4, 7]	IC50 [4, 8]	IC50 [4, 9]	IC50 [4, 10]	IC50 [5, 11]	IC50 [5, 12]	IC50 [5, 13]	IC50 [5, 14]	inhibition of virus-induced CPE [3]	IC50, dual-oseltamivir and amantadine-resistant H1N1 CPE assay, in the modes tested [4]	IC50 ([4]; Influenza A virus, H1N1, MDCK, read-out: IC50, dual-oseltamivir and amantadine-resistant H1N1 CPE assay, in the modes tested)
C=C(C(=O)O)[C@H]1CC[C@H](C)[C@@H]2CC(=O)C(C)=C2C1 (stereo in doubt) [Rupestonic acid]	> 100 µM	> 100 µM	–	–	–	–	–	–	–	–	–	–	–	–	–
O=c1cc(-c2ccc(O)cc2)oc2cc(O)cc(O)c12 [Apigenin]	–	–	< 100 µM	> 100 µM	31.6 ± 10.3 µM	35.4 ± 3.98 µM	39 ± 3.82 µM	< 100 µM	28.1 ± 2.37 µM	32.1 ± 4.13 µM	40.5 ± 4 µM	36.5 ± 5.79 µM	–	–	–
O=C(/C=C/c1ccc(O)c(O)c1)O[C@@H]1C[C@](O)(C(=O)O)C[C@@H](O)[C@H]1O [Chlorogenic acid]	> 100 µM	> 100 µM	–	–	–	–	–	–	–	–	–	–	no inhibition of virus-induced CPE	–	–
C=C[C@@H]1CNC(=S)O1 [Epigoitrin]	> 100 µM	> 100 µM	–	–	–	–	–	–	–	–	–	–	–	–	–
O=c1cc(-c2ccc(O)c(O)c2)oc2cc(O)cc(O)c12 [Luteolin]	–	–	< 100 µM	> 100 µM	15.2 ± 4.46 µM	20.1 ± 10.6 µM	47.2 ± 7.14 µM	< 100 µM	31.9 ± 1.99 µM	1.14 ± 1.02 µM	24.9 ± 9.62 µM	> 100 µM	–	–	–
O=c1cc(-c2ccc(O)c(O)c2)oc2c([C@@H]3O[C@H](CO)[C@@H](O)[C@H](O)[C@H]3O)c(O)cc(O)c12 [Orientin]	> 100 µM	> 100 µM	–	–	–	–	–	–	–	–	–	–	no inhibition of virus-induced CPE	–	–
CCOC(=O)C1=C[C@@H](OC(CC)CC)[C@H](NC(C)=O)[C@@H](N)C1 [Oseltamivir, oseltamivir phosphate, reference compound]	–	–	–	> 100 µM	> 100 µM	> 100 µM	> 100 µM	–	86.9 ± 7.8 µM	25.4 ± 8.32 µM	25.5 ± 8.36 µM	> 100 µM	–	no effect	–
O=c1c(O)c(-c2ccc(O)c(O)c2)oc2cc(O)cc(O)c12 [Quercetin]	–	–	< 100 µM	> 100 µM	6.93 ± 4.6 µM	14.6 ± 1.8 µM	19.1 ± 1.95 µM	< 100 µM	20.7 ± 14.7 µM	7.73 ± 3.04 µM	37.1 ± 18.2 µM	86.1 ± 13.8 µM	–	–	–
NC(=O)c1ncn([C@@H]2O[C@H](CO)[C@@H](O)[C@H]2O)n1 [Ribavirin, ribavirin, reference compound]	–	–	–	57.9 ± 10.5 µM	29.8 ± 6.4 µM	36.2 ± 13.7 µM	39.9 ± 9.71 µM	–	25.9 ± 14.6 µM	24.6 ± 3.1 µM	26.2 ± 2.4 µM	86.7 ± 9.8 µM	–	–	29.8 to 57.9 µM
